Results on 1 substance are retold here after US20120171194A1, “Method of Cell Differentiation and Uses Therefor in Screening, Diagnosis and Therapy” (priority 2009, published 2012).

For the assay, the system named is co-culture of HLA-A2 positive monocytes and HLA-A2 negative HUVECs. In words: Co-culture of PBMC-derived monocytes with HUVECs: endothelial incorporation of monocyte-derived EC-like cells (flow cytometry, HLA-A2). It is filed as cell-based, human. To be noted: day 3; for proportion of HLA-A2 positive cells of the total cell population: no apoA-I control about 15%; for endothelial incorporation of HLA-A2 positive monocyte-derived endothelial-like cells into the HUVECs layer (effect in words): apoA-I 0.25, 0.5 and 2.0 mg/ml. How it is done: Human umbilical vein ECs (HUVEC) were isolated from human umbilical veins using collagenase digestion. Briefly, umbilical cords from normal or caesarean deliveries are collected and perfused with Ca^2+ and Mg^2+-free phosphate buffer saline (PBS). HUVECs were removed by short treatment at 37° C. with collagenase solution (0.1% in PBS with Ca^2+ and Mg^2+). HUVECS were cultured and expanded for use in investigation at no later than passage 4. Cells were grown under standard culture conditions of 37° C. in a 95% air/5% CO2 atmosphere in M199 media (Cell Applications or Invitrogen Australia) supplemented with 10% foetal bovine serum (FBS; Trace Bioscience, or Invitrogen Australia) or with 10% heat-inactivated human serum and with a D-glucose concentration of 5.0 mM. The human serum was obtained from healthy donors within 7 days of the experiment. The human serum was filtered with 0.22 μm PES membrane (Millipore) and heat inactivated at 56° C. for 30 minutes.
The ECs were screened for human leucocyte antigen-A2 type (HLA-A2) expression with direct immunofluorescence and flow cytometry (Beckman Coulter). The batches of HUVEC cells that were HLA-A2 negative were used in these investigations. Alternatively, batches of HACECs that are HLA-A2 negative are used in these investigations. The batches of HLA-A2 negative HUVECs preferably at second passage were grown to approximately 75% sub-confluence on 6-wells cell culture plates (Becton Dickinson Labware, growth area 9.6 cms^2 per well) at a density varying from 10,000 to 500,000 cells per well 24 hours before the co-culture. Usually a density of 500,000 cells per well is needed to achieve a fully confluent layer of HUVECS. Alternatively, batches of HLA-A2 negative HCAECs preferably at second passage are grown to approximately 75% sub-confluence on 6-wells cell culture plates (Bectin Dickinson Labware).
Fresh peripheral blood mononuclear cells (PBMCs) were obtained from venous blood of healthy HLA-A2 positive donors (n=5) by gradient centrifugation on Lymphoprep in a hypertonic medium (Lymphoprep™) and immediately seeded onto HUVECs. Alternatively, the PBMCs are immediately seeded onto HCAECs layers at densities ranging from 0.25 to 2×10^6 cells per well. […] The co-cultured cell layer containing HUVECs were detached at multiple time points between day 0 and day 6 by addition of 20 μl of detachment solution containing 0.12% trypsin and analyzed by direct immunofluoresence and flow cytometry inter alia for expression of cell surface markers. […]
Expression of cell surface markers was analyzed by two-colors direct immunofluoresence and flow cytometry (Cytomics FC500, Beckman Coulter). […]
In general terms: A flow cytometer gives signals particle by particle.

Take apolipoprotein A-I [apoA-I]: the “endothelial incorporation of HLA-A2 positive monocyte-derived endothelial-like cells into the HUVECs layer (effect in words)” value was “dose dependent increase”. For the setting “0.5 mg/ml apoA-I in co-culture, t test P<0.01”, the “proportion of HLA-A2 positive cells of the total cell population” value is on record as “about 33%”. Also, the “proportion of HLA-A2 positive cells of the total cell population” value (2.0 mg/ml apoA-I in co-culture) is listed as “about 37%”. Besides, the “endothelial incorporation of HLA-A2 positive monocyte-derived endothelial-like cells into the HUVECs layer (effect in words)” value (listed as ApoA-I) is “increased endothelial incorporation”.
